Assay results from the NIST ThermoML archive (doi:10.1021/je060271a).
Values joined by “and” are separate entries in the source; they are usually repeats but may differ in a detail not shown here. Equal values may be shown once.

Settings: 283.15 K, Liquid, Vibrating tube method

CCCCCC(=O)OCC(COC(=O)CCCCC)(COC(=O)CCCCC)COC(=O)CCCCC [pentaerythritol tetrahexanoate]
Settings | mass density
15225 kPa | 1012.8 kg/m3
15241 kPa | 1012.9 kg/m3
15260 kPa | 1012.8 kg/m3
15276 kPa | 1012.7 kg/m3
15292 kPa | 1012.8 kg/m3
15311 kPa | 1012.8 kg/m3
15327 kPa | 1013 kg/m3
15343 kPa | 1012.8 kg/m3
15363 kPa | 1012.9 kg/m3
15379 kPa | 1013.1 kg/m3
15395 kPa | 1012.9 kg/m3
15412 kPa | 1013 kg/m3
15432 kPa | 1012.9 kg/m3
15448 kPa | 1012.9 kg/m3
15467 kPa | 1013.1 kg/m3
15483 kPa | 1013.1 kg/m3
15500 kPa | 1013.1 kg/m3
15519 kPa | 1012.8 kg/m3
15536 kPa | 1013.1 kg/m3
15552 kPa | 1012.9 kg/m3
15572 kPa | 1013 kg/m3
15589 kPa | 1013 kg/m3
15606 kPa | 1013 kg/m3
15626 kPa | 1013 kg/m3
15642 kPa | 1013.1 kg/m3
15659 kPa | 1012.9 kg/m3
15679 kPa | 1013 kg/m3
15696 kPa | 1013.1 kg/m3
15713 kPa | 1013.1 kg/m3
15733 kPa | 1013 kg/m3
15750 kPa | 1013.1 kg/m3
15767 kPa | 1013.1 kg/m3
15788 kPa | 1013 kg/m3
15805 kPa | 1013.2 kg/m3
15823 kPa | 1013.2 kg/m3
15841 kPa | 1013.2 kg/m3
15861 kPa | 1013.1 kg/m3
15878 kPa | 1013.2 kg/m3
16066 kPa | 1013.4 kg/m3
16083 kPa | 1013.3 kg/m3
16104 kPa | 1013.4 kg/m3
16122 kPa | 1013.3 kg/m3
16139 kPa | 1013.3 kg/m3
16157 kPa | 1013.3 kg/m3
16178 kPa | 1013.2 kg/m3
16195 kPa | 1013.3 kg/m3
16214 kPa | 1013.4 kg/m3
16230 kPa | 1013.4 kg/m3
16247 kPa | 1013.2 kg/m3
16266 kPa | 1013.4 kg/m3
16282 kPa | 1013.4 kg/m3
16299 kPa | 1013.5 kg/m3
16315 kPa | 1013.4 kg/m3
16334 kPa | 1013.3 kg/m3
16351 kPa | 1013.4 kg/m3
16368 kPa | 1013.6 kg/m3
16388 kPa | 1013.5 kg/m3
16404 kPa | 1013.4 kg/m3
16421 kPa | 1013.5 kg/m3
16441 kPa | 1013.4 kg/m3
16457 kPa | 1013.5 kg/m3
16474 kPa | 1013.5 kg/m3
16491 kPa | 1013.6 kg/m3
16511 kPa | 1013.5 kg/m3
16528 kPa | 1013.6 kg/m3
16545 kPa | 1013.6 kg/m3
16565 kPa | 1013.7 kg/m3
16582 kPa | 1013.5 kg/m3
16598 kPa | 1013.5 kg/m3
16619 kPa | 1013.6 kg/m3
16636 kPa | 1013.6 kg/m3
16653 kPa | 1013.6 kg/m3
16673 kPa | 1013.6 kg/m3
16690 kPa | 1013.7 kg/m3
16707 kPa | 1013.6 kg/m3
16727 kPa | 1013.6 kg/m3
16745 kPa | 1013.6 kg/m3
16762 kPa | 1013.6 kg/m3
16782 kPa | 1013.6 kg/m3
16800 kPa | 1013.6 kg/m3
16817 kPa | 1013.7 kg/m3
16837 kPa | 1013.7 kg/m3
16854 kPa | 1013.6 kg/m3
16872 kPa | 1013.7 kg/m3
16893 kPa | 1013.7 kg/m3
16911 kPa | 1013.8 kg/m3
16929 kPa | 1013.8 kg/m3
16951 kPa | 1013.7 kg/m3
16969 kPa | 1013.8 kg/m3
16988 kPa | 1013.8 kg/m3
17008 kPa | 1013.8 kg/m3
17031 kPa | 1013.9 kg/m3
17050 kPa | 1013.8 kg/m3
17097 kPa | 1013.8 kg/m3
17099 kPa | 1013.9 kg/m3
17100 kPa | 1013.9 kg/m3
17101 kPa | 1013.7 kg/m3
17113 kPa | 1013.8 kg/m3
17138 kPa | 1013.8 kg/m3
17147 kPa | 1013.8 kg/m3
17148 kPa | 1013.8 kg/m3 and 1014 kg/m3
17156 kPa | 1013.8 kg/m3
17174 kPa | 1013.8 kg/m3
17193 kPa | 1013.9 kg/m3
17211 kPa | 1013.9 kg/m3
17233 kPa | 1013.8 kg/m3
17252 kPa | 1013.9 kg/m3
17270 kPa | 1014 kg/m3
17291 kPa | 1013.9 kg/m3
17309 kPa | 1013.8 kg/m3
17331 kPa | 1014 kg/m3
17350 kPa | 1013.9 kg/m3
17373 kPa | 1013.9 kg/m3
17392 kPa | 1014 kg/m3
17411 kPa | 1014.1 kg/m3
17430 kPa | 1014 kg/m3
17453 kPa | 1014.1 kg/m3
17472 kPa | 1014 kg/m3
17491 kPa | 1014.1 kg/m3
17514 kPa | 1014.1 kg/m3
17534 kPa | 1014.1 kg/m3
17555 kPa | 1014 kg/m3
17574 kPa | 1014.1 kg/m3
17593 kPa | 1014.1 kg/m3
17616 kPa | 1014.1 kg/m3
17635 kPa | 1014.1 kg/m3
17656 kPa | 1014 kg/m3
17672 kPa | 1014.2 kg/m3
17688 kPa | 1014.2 kg/m3
17708 kPa | 1014 kg/m3
17723 kPa | 1014.2 kg/m3
17739 kPa | 1014.3 kg/m3
17758 kPa | 1014.2 kg/m3
17775 kPa | 1014.2 kg/m3
17791 kPa | 1014.2 kg/m3
17807 kPa | 1014.3 kg/m3
17827 kPa | 1014.2 kg/m3
17843 kPa | 1014.2 kg/m3
17861 kPa | 1014.3 kg/m3
17877 kPa | 1014.2 kg/m3
17892 kPa | 1014.2 kg/m3
17907 kPa | 1014.3 kg/m3
17925 kPa | 1014.3 kg/m3
17939 kPa | 1014.3 kg/m3
